This is an account of results in EP0618222A2, “Dipeptid derivatives of 5-amino-4-hydroxy-hexanoic acid” (CIBA-GEIGY AG, priority 1993, dated 1994).

Molecules are shown by their SMILES.

The nature of series [1]: Blood level in mice after administration (HPLC of blood/plasma). In kind it is in vivo, Mäuse. The conditions noted are these: po; mouse blood, peroral 120 mg/kg, 30 min after administration; read-out: Konzentration. On the procedure: Die pharmakodynamischen Eigenschaften der Verbindungen der Formel können beispielsweise wie folgt belegt werden: • Die zu untersuchenden Verbindungen der Formel oder (beispielsweise als Kontrolle) die entsprechende Verbindung der Formel werden in einem organischen Lösungsmittel, wie Dimethylsulfoxid (DMSO), in einer Konzentration von 240 mg/ml gelöst. Die resultierenden Lösungen werden mit 20% (w/v) Hydroxypropyl-ßcyclodextrin (HPßCD) verdünnt, um eine Konzentration der Testsubstanz von 12 mg/ml zu erhalten. Diese Lösung wird Mäusen oral durch künstliche Sonderernährung in einer Dosis von 120 mg/kg verabreicht. 30, 60, 90 und 120 min nach der Verabreichung werden die Tiere getötet und Blut entnommen. Pro Zeitpunkt werden drei bis vier Tiere untersucht. Das Blut wird heparinisiert und für die Analyse durch eine der folgenden beiden Methoden vorbereitet: Nach der ersten Methode wird Vollblut deproteinisiert durch Mischen eines Volumenteils Blut mit einem Volumenteil Acetonitril; nach Zentrifugation (10 000 g, 5 min) wird der Überstand durch Reversed-Phase-HPLC untersucht. Nach der zweiten Methode werden 2 µl einer 1 mM Lösung eines internen Standards (wie einer anderen Verbindung der Formel I) zu 0,5 ml heparinisiertem Blut zugegeben. Das Blut wird zentrifugiert (10 000 g, 5 min), und das Plasma mit demselben Volumen Acetonitril vermischt. […]

A further series relates to HIV-1. The series is described as follows: Protection of MT-2 cells against HIV-1 infection (reverse transcriptase activity in supernatant). Format: cell-based. As to conditions: Human immunodeficiency virus 1, MT2, 96 h; lowest concentration lowering RT activity by 90 %; MT-2 cells with HIV-1, 4 days incubation; read-out: ED90 (the source's name). An excerpt: In einem weiteren Test kann gezeigt werden, dass die Verbindungen der vorliegenden Erfindung Zellen, die normalerweise von HIV infiziert werden, vor einer solchen Infektion schützen oder zumindest eine solche Infektion verlangsamen. Dabei wird die menschliche T-Zell-Leukämie Zellinie MT-2 (Science 229, 563 (1985)), die empfindlich gegen den zytopathogenen Effekt von HIV ist, mit HIV-1 allein oder mit HIV-1 in Gegenwart einer der erfindungsgemässen Verbindungen inkubiert und nach einigen Tagen die Lebensfähigkeit der so behandelten Zellen beurteilt. Hierzu werden die MT-2-Zellen in RPMI 1640-Medium (Gibco, Schweiz; RPMI 1640 enthält ein Aminosäurengemisch ohne L-Gln), das mit 10% hitzeinaktiviertem fetalem Kälberserum, L-Glutamin, Hepes (2-[4-(2-Hydroxyethyl)-1-piperazino]-ethansulfonsäure) und Standardantibiotika supplementiert ist, bei 37 °C in befeuchteter Luft mit 5% CO2 gehalten. 50 µl der jeweiligen Testverbindung in Kulturmedium und 100 µl HIV-1 in Kulturmedium (800 TCID50/ml) (TCID50 = Tissue Culture Infectious Dose 50 = Dosis, die 50% der MT-2-Zellen infiziert) werden zu 4x1 0^3 exponentiell wachsenden MT-2-Zellen in 50 µl Kulturmedium pro Vertiefung auf 96-Loch-Mikrotiterplatten gegeben. Parallele Ansätze auf einerweiteren Mikrotiterplatte mit Zellen und Testverbindung erhalten 100 µl Kulturmedium ohne Virus. […]

`COc1ccc(C[C@H](C[C@H](O)[C@H](Cc2ccccc2)NC(=O)OC(C)(C)C)C(=O)N[C@H](C(=O)N[C@@H](Cc2ccccc2)C(=O)N2CCOCC2)C(C)C)cc1` [5(S)-(tert-Butoxycarbonylamino)-4(S)-hydroxy-2(R)-(p-methoxy-phenylmethyl)-6-phenyl-hexanoyl-(L)-valyl-(L)-phenyl-alanyl-morpholin-4-ylamid]: the concentration at 0.5 h in series [1] was found to be 10.8 µM. The EC90 with HIV-1 is 100 nM.
